These results are taken from patent US20200214324A1, “Masking Bitter Flavors” (Board of Supervisors of Louisiana State University and …, priority 2009, published 2020).

For test [1] the following is noted: has been reported; cited from earlier work.
Test [2] can be described thus: taste of the mogroside itself and blocking of bitter tastes. Type of test: in vivo. The source says:
In many (but not necessarily all) uses of the present invention, it is preferred to use levels of mogroside below the threshold at which the mogroside imparts a sweetening effect. […] Mogroside V is sweet. Mogroside III has been reported to be tasteless. […] If desired, it should be possible to use Mogroside III in higher concentration than Mogroside V to block bitter or other unwanted tastes, without imparting any sweetening effect.

Test [3] can be described thus: sodium reduction blends tested on potato chips. The test is classed as in vivo. On the procedure: (§1) These sodium reduction blends were tested with red beans, navy beans, crackers, and potato chips. Results are shown in Table III (in which “M” is an abbreviation for Mogroside V.)
Test [4] is described as follows: sodium reduction blends tested on navy beans. The test is classed as in vivo. On the procedure:
as §1

Test [5] in a line: sodium reduction blends tested on whole wheat crackers. Type of test: in vivo. Here is the method: as §1
The nature of test [6]: sodium reduction blends tested on red beans. The test is classed as in vivo. On the procedure: as §1
Test [7] is described as follows: sodium reduction blends tested on shredded wheat crackers. Type of test: in vivo. Here is the method: as §1
The nature of test [8]: blind tasting of poached chicken liver and chicken gizzard puree. The test is classed as in vivo. Here is the method: In initial experiments, Mogroside V was tested at varying levels from 100-500 ppm. […] Mogroside V was added to a chicken liver and chicken gizzard puree, and the puree was poached to an internal temperature of 74° C. A control puree with no mogroside was identically cooked. Six individuals tasted the samples blind and could easily differentiate them.

Where two headings read alike, the source gives them in different places.

Consider `C[C@H](CC[C@@H](O[C@@H]1O[C@H](CO[C@@H]2O[C@H](CO)[C@@H](O)[C@H](O)[C@H]2O)[C@@H](O)[C@H](O)[C@H]1O)C(C)(C)O)[C@H]1CC[C@@]2(C)[C@@H]3CC=C4[C@@H](CC[C@H](O[C@@H]5O[C@H](CO)[C@@H](O)[C@H](O)[C@H]5O)C4(C)C)[C@]3(C)[C@H](O)C[C@]12C` [Mogroside III], for which, in test [1], the “taste of the compound itself” value is “tasteless”. The “blocking of bitter tastes” value in test [2] (preliminary tests) is “effectively blocks bitter tastes”.
On to `[Cl-].[Na+]` [NaCl], for which the “Overall Taste” value in test [3] amounted to 6.97; in test [4], 6.17; in test [5] it was 7.04; in test [6], 6.79; in test [7], 6.04. Moreover, the Saltiness stood at 6.92 in test [3]; 6.13 in test [4]; 6.96 in test [5]; 6.63 in test [6]; 6.04 in test [7].
Regarding `C[C@H](CC[C@@H](O[C@@H]1O[C@H](CO[C@@H]2O[C@H](CO)[C@@H](O)[C@H](O)[C@H]2O)[C@@H](O)[C@H](O)[C@H]1O[C@@H]1O[C@H](CO)[C@@H](O)[C@H](O)[C@H]1O)C(C)(C)O)[C@H]1CC[C@@]2(C)[C@@H]3CC=C4[C@@H](CC[C@H](O[C@@H]5O[C@H](CO[C@@H]6O[C@H](CO)[C@@H](O)[C@H](O)[C@H]6O)[C@@H](O)[C@H](O)[C@H]5O)C4(C)C)[C@]3(C)[C@H](O)C[C@]12C` [Mogroside V], the “taste of the compound itself” value in test [2] (in vivo) is given as “sweet”. For the same molecule, the “taste description by six blind tasters” value in test [8] (150-250 ppm, puree poached to 74° C., control livery, organy, bloody) was “slightly sweet, “bologna-like,” and “bland.””. Moreover, the “effect above the preferred range” value in test [8] (above about 250 ppm) is given as “a very sweet taste developed”. Besides, in test [8] (below about 150 ppm), the “effect below the preferred range” value was “the effect was minimal”. For the same molecule, the “preferred levels of mogroside” value in test [8] (initial experiments, tested 100-500 ppm) was 150-250 ppm. For the same molecule, the preference of testers entry in test [8] (samples with mogroside vs control puree, six individuals) is listed as “All testers preferred the samples with mogroside”. The “level preferred by the majority of testers” value in test [8] (tested 100-500 ppm) is recorded as 200 ppm.
